In patent US10065945B2, “Isoquinoline derivatives as MGAT2 inhibitors” (Merck Sharp & Dohme Corp., priority 2014, dated 2018):
Counter-ions that a name gives are not always drawn.

Biological target: MGAT2 Human (Homo sapiens (Human), UniProt Q3SYC2)
Assay: MGAT2 Human IC50
Assay type: biochemical

MGAT2 Human, sequence (Q3SYC2 whole entry): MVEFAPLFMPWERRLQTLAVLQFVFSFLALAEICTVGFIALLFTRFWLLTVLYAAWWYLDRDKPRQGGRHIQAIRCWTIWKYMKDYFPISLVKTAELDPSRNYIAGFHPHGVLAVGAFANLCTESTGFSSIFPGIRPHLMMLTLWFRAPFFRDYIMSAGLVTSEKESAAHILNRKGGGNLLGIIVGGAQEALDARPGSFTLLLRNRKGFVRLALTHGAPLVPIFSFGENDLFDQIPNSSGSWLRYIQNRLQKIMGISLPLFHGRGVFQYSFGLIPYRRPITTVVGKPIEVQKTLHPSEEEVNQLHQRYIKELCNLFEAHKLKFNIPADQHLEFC

SMILES | IC50 [nM]
Cc1c(NS(=O)(=O)c2ccc3c(c2)CN(Cc2ccc(OCC(F)(F)F)nc2)CC3)noc1C(C)(C)C [Example 15, N-(5-(tert-butyl)-4-methylisoxazol-3-yl)-2-((6-(2,2,2-trifluoroethoxy)pyridin-3-yl)methyl)-1,2,3,4-tetrahydroisoquinoline-7-sulfonamide] | 11
C[C@H](c1cc(F)cc(F)c1)N1CCc2ccc(S(=O)(=O)Nc3nc(C(N)=O)no3)cc2C1 [Example 52, (R)-5-(2-(1-(3,5-difluorophenyl)ethyl)-1,2,3,4-tetrahydroisoquinoline-7-sulfonamido)-1,2,4-oxadiazole-3-carboxamide] | 31
CCSc1ncc([C@@H](C)N2CCc3ccc(S(=O)(=O)Nc4cc(C(C)(C)C)on4)cc3C2)cn1 [Example 4, (R)—N-(5-(tert-butyl)isoxazol-3-yl)-2-(1-(2-(ethylthio)pyrimidin-5-yl)ethyl)-1,2,3,4-tetrahydroisoquinoline-7-sulfonamide] | 11
Cc1c(NS(=O)(=O)c2ccc3c(c2)CN(Cc2cnc(SCC(F)(F)F)nc2)CC3)noc1C(C)(C)C [Example 20, N-(5-(tert-butyl)-4-methylisoxazol-3-yl)-2-((2-((2,2,2-trifluoroethyl)thio)pyrimidin-5-yl)methyl)-1,2,3,4-tetrahydroisoquinoline-7-sulfonamide] | 5.8
CC(C)c1nc(NS(=O)(=O)c2ccc3c(c2)CN([C@H](C)c2ccc(OCC(F)(F)F)nc2)CC3)no1 [Example 8] | 13
CC(C)(C)c1onc(NS(=O)(=O)c2ccc3c(c2)CN(Cc2ccc(OCC(F)(F)F)nc2)CC3)c1F [Example 16, N-(5-(tert-butyl)-4-fluoroisoxazol-3-yl)-2-((6-(2,2,2-trifluoroethoxy)pyridin-3-yl)methyl)-1,2,3,4-tetrahydroisoquinoline-7-sulfonamide] | 16
CCCc1cnc(NS(=O)(=O)c2ccc3c(c2)CN([C@H](C)c2ccc(OCC(F)(F)F)nc2)CC3)cn1 [Example 45, 7-(N-(5-propylpyrazin-2-yl)sulfamoyl)-2-((R)-1-(6-(2,2,2-trifluoroethoxy)pyridin-3-yl)ethyl)-1,2,3,4-tetrahydroisoquinolin-2-ium 2,2,2-trifluoroacetate] | 7.3
C/C=C/c1c(NS(=O)(=O)c2ccc3c(c2)CN(Cc2cnc(OCC(F)(F)F)s2)CC3)noc1C(C)(C)C [Example 21, (E)-N-(5-(tert-butyl)-4-(prop-1-en-1-yl)isoxazol-3-yl)-2-((2-(2,2,2-trifluoroethoxy)thiazol-5-yl)methyl)-1,2,3,4-tetrahydroisoquinoline-7-sulfonamide] | 3.9
CC(C)(C)c1onc(NS(=O)(=O)c2cnc3c(c2)CN(Cc2cc(F)cc(F)c2)CC3)c1Br [Example 44, N-(4-bromo-5-(tert-butyl)isoxazol-3-yl)-6-(3,5-difluorobenzyl)-5,6,7,8-tetrahydro-1,6-naphthyridine-3-sulfonamide Trifluoroacetate] | 118
CCCc1ccc(CN2CCc3ccc(S(=O)(=O)Nc4noc(C(C)(C)C)c4Br)cc3C2)cn1 [Example 41, N-(4-bromo-5-(tert-butyl)isoxazol-3-yl)-2-((6-propylpyridin-3-yl)methyl)-1,2,3,4-tetrahydroisoquinoline-7-sulfonamide] | 6.8
COCCOc1ccc(C(=O)N2CCc3ccc(S(=O)(=O)Nc4noc(C(C)(C)C)c4C)cc3C2)cn1 [Example 30, N-(5-(tert-butyl)-4-methylisoxazol-3-yl)-2-(6-(2-methoxyethoxy)nicotinoyl)-1,2,3,4-tetrahydroisoquinoline-7-sulfonamide] | 31
CCOc1cnc([C@@H](C)N2CCc3ccc(S(=O)(=O)Nc4noc(-c5ccccc5)n4)cc3C2)cn1 [Example 37] | 11.5
COc1ccc(NS(=O)(=O)c2ccc3c(c2)CN([C@H](C)c2ccc(OCC(F)(F)F)nc2)CC3)nn1 [Example 49, (R)—N-(6-methoxypyridazin-3-yl)-2-(1-(6-(2,2,2-trifluoroethoxy)pyridin-3-yl)ethyl)-1,2,3,4-tetrahydroisoquinoline-7-sulfonamide] | 8.7
COCCOc1ccc([C@@H](C)N2CCc3ccc(S(=O)(=O)Nc4cnc(C5CC5)cn4)cc3C2)cn1 [Example 48, 7-(N-(5-cyclopropylpyrazin-2-yl)sulfamoyl)-2-((R)-1-(6-(2-methoxyethoxy)pyridin-3-yl)ethyl)-1,2,3,4-tetrahydroisoquinolin-2-ium 2,2,2-trifluoroacetate] | 21.3
CCc1noc(NS(=O)(=O)c2ccc3c(c2)CN([C@H](C)c2ccc(OCC(F)(F)F)nc2)CC3)n1 [Example 7] | 8.1
CCOC(=O)c1c(NS(=O)(=O)c2ccc3c(c2)CN([C@H](C)c2cc(F)cc(F)c2)CC3)noc1C(C)(C)C [Example 33, (R)-ethyl 5-(tert-butyl)-3-(2-(1-(3,5-difluorophenyl)ethyl)-1,2,3,4-tetrahydroisoquinoline-7-sulfonamido)isoxazole-4-carboxylate] | 3.7
C[C@H](c1ccc(OCC(F)(F)F)nc1)N1CCc2ccc(S(=O)(=O)Nc3cc(C(C)(C)F)on3)cc2C1 [Example 19, (R)—N-(5-(2-fluoropropan-2-yl)isoxazol-3-yl)-2-(1-(6-(2,2,2-trifluoroethoxy)pyridin-3-yl)ethyl)-1,2,3,4-tetrahydroisoquinoline-7-sulfonamide] | 18
CCOC(=O)c1noc(NS(=O)(=O)c2ccc3c(c2)CN([C@H](C)c2cc(F)cc(F)c2)CC3)n1 [Example 51, (R)-ethyl 5-(2-(1-(3,5-difluorophenyl)ethyl)-1,2,3,4-tetrahydroisoquinoline-7-sulfonamido)-1,2,4-oxadiazole-3-carboxylate] | 14
CCc1cnc(NS(=O)(=O)c2ccc3c(c2)CN([C@H](C)c2ccc(OCC(F)F)nc2)CC3)cn1 [Example 46, 2-((R)-1-(6-(2,2-difluoroethoxy)pyridin-3-yl)ethyl)-7-(N-(5-ethylpyrazin-2-yl)sulfamoyl)-1,2,3,4-tetrahydroisoquinolin-2-ium 2,2,2-trifluoroacetate] | 12.7
C[C@H](c1cnc(OCC(F)(F)F)nc1)N1CCc2ccc(S(=O)(=O)Nc3cc(C(C)(C)C)on3)cc2C1 [Example 12, (R)—N-(5-(tert-butyl)isoxazol-3-yl)-2-(1-(2-(2,2,2-trifluoroethoxy)pyrimidin-5-yl)ethyl)-1,2,3,4-tetrahydroisoquinoline-7-sulfonamide] | 14
C[C@H](c1cc(F)cc(F)c1)N1CCc2ccc(S(=O)(=O)Nc3nc(C(=O)NCC(F)(F)F)no3)cc2C1 [Example 54] | 16
C[C@H](c1ccc(OCC(F)(F)F)nc1)N1CCc2ccc(S(=O)(=O)Nc3noc(-c4ccccc4)n3)cc2C1 [Example 6] | 9.2
Cc1c(NS(=O)(=O)c2ccc3c(c2)CN([C@H](C)c2cnc(OCC(F)F)cn2)CC3)noc1C(C)(C)C [Example 25, 7-(N-(5-(tert-butyl)-4-methylisoxazol-3-yl)sulfamoyl)-2-((R)-1-(5-(2,2-difluoroethoxy)pyrazin-2-yl)ethyl)-1,2,3,4-tetrahydroisoquinolin-2-ium 2,2,2-trifluoroacetate] | 4.6
C[C@H](c1cc(F)cc(F)c1F)N1CCc2ccc(S(=O)(=O)Nc3cc(C(C)(C)C)on3)cc2C1 [Example 2, (R)—N-(5-(tert-butyl)isoxazol-3-yl)-2-(1-(2,3,5-trifluorophenyl)ethyl)-1,2,3,4-tetrahydroisoquinoline-7-sulfonamide] | 6
Cc1c(NS(=O)(=O)c2ccc3c(c2)CN(C(=O)c2ccc(OCC(F)(F)F)nc2)CC3)noc1C(C)(C)C [Example 27, N-(5-(tert-butyl)-4-methylisoxazol-3-yl)-2-(6-(2,2,2-trifluoroethoxy)nicotinoyl)-1,2,3,4-tetrahydroisoquinoline-7-sulfonamide] | 41
C[C@H](c1cccc(Cl)c1)N1CCc2ccc(S(=O)(=O)Nc3cc(C(C)(C)C)on3)cc2C1 [Example 1, (R)—N-(5-(tert-butyl)isoxazol-3-yl)-2-(1-(3-chlorophenyl)ethyl)-1,2,3,4-tetrahydroisoquinoline-7-sulfonamide] | 9
